Reference: PMC10107027 (RSC Advances, 2023)

Target: T1, Neutrophil elastase enzyme (HNE) (Homo sapiens, UniProt P08246)
T1 sequence (P08246 30-267): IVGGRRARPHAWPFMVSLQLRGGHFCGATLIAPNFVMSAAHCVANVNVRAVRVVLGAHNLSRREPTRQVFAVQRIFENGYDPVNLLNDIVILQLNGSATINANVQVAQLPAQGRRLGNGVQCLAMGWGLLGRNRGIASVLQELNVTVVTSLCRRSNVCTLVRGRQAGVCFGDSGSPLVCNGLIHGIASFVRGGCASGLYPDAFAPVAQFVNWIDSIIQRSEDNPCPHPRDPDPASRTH
Test: Neutrophil elastase inhibitor activity
Format: biochemical
Settings: read-out: Degree of HNE inhibition (Mean)

inhibition at 0.1 µM | inhibition at 1 µM | inhibition at 10 µM | inhibition at 50 µM | inhibition at 100 µM | Compound
16.3% | 18.9% | 21.5% | 24.8% | 28.8% | NC(=S)NNC(=O)CC1C(=O)c2ccccc2C1=O [IDC2, 2-(2-(1,3-Dioxo-2,3-dihydro-1H-inden-2-yl)acetyl)hydrazine-1-carbothioamide]
12% | 16.7% | 24.6% | 25.8% | 26.7% | O=C(CC1C(=O)c2ccccc2C1=O)NNC(=S)N=Cc1cccc([N+](=O)[O-])c1 [IDC7, 2-(2-(1,3-Dioxo-2,3-dihydro-1H-inden-2-yl)acetyl)-N-(3-nitrobenzylidene)hydrazine-1-carbothioamide]
18.6% | 21.6% | 28.7% | 30.1% | 36.5% | NNC(=O)CC1C(=O)c2ccccc2C1=O [IDH1, 2-(1,3-Dioxo-2,3-dihydro-1H-inden-2-yl)acetohydrazide]
96.2% | 98.5% | 98.6% | 98.5% | 99.8% | CC(C)(C)C(=O)Oc1ccc(S(=O)(=O)Nc2ccccc2C(=O)NCC(=O)O)cc1 [Sivelestat, reference compound]
